For series [1], the target named is T1, Cytochrome P450 2C8 (Homo sapiens, UniProt P10632).
T1 sequence (P10632 whole entry): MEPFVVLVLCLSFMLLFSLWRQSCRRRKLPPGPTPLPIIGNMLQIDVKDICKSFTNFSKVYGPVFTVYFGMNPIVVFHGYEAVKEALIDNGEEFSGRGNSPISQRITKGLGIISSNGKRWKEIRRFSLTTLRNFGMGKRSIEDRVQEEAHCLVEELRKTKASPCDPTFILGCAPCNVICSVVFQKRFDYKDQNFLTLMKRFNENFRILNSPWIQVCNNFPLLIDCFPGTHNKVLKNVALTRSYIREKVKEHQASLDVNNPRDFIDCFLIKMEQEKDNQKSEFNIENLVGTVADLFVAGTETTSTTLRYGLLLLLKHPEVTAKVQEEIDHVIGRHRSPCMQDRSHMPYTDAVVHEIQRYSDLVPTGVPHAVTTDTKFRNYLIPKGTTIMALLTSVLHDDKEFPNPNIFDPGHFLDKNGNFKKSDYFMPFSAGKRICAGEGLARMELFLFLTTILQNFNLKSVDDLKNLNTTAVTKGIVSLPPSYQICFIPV
Description: (§4) Mechanism based inhibition of human cytochrome P450 2C8 measured by paclitaxel hydroxylation using a recombinant system

The target of series [2] is T2, CYP2C8 (Homo sapiens, UniProt P10632).
T2 sequence (P10632 whole entry): T1 sequence (P10632 whole entry)
The experiment in a line: in vitro. To be noted: recombinant CYP2C8, probe paclitaxel.
Description: as §4

The target of series [3] is T3, Cytochrome P450 2C11 (Rattus norvegicus, UniProt P08683).
T3 sequence (P08683 whole entry): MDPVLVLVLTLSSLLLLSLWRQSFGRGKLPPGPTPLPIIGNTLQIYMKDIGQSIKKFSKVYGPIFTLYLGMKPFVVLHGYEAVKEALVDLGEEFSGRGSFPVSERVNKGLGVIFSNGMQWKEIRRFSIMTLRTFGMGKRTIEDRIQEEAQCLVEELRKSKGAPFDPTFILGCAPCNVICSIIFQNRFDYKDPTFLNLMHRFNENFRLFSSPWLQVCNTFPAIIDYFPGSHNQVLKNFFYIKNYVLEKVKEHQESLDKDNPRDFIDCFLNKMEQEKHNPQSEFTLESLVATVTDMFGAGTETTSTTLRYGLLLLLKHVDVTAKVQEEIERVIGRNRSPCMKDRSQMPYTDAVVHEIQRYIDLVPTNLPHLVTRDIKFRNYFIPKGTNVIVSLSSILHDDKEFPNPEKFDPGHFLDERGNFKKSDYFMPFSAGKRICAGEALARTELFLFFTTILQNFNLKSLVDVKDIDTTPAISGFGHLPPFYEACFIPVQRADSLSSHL
Nature of the series: Mechanism based inhibition of rat cytochrome P450 CYP2C11 measured by 2-alpha and 16-alpha hydroxylation of testosterone. In kind it is ADME.

For series [4], the target named is Cytochrome P450 2E1 (Rattus norvegicus, UniProt P05182). Nature of the series: Mechanism based inhibition of rat cytochrome P450 CYP2E1. In kind it is ADME.
Sequence of Cytochrome P450 2E1 (P05182 whole entry): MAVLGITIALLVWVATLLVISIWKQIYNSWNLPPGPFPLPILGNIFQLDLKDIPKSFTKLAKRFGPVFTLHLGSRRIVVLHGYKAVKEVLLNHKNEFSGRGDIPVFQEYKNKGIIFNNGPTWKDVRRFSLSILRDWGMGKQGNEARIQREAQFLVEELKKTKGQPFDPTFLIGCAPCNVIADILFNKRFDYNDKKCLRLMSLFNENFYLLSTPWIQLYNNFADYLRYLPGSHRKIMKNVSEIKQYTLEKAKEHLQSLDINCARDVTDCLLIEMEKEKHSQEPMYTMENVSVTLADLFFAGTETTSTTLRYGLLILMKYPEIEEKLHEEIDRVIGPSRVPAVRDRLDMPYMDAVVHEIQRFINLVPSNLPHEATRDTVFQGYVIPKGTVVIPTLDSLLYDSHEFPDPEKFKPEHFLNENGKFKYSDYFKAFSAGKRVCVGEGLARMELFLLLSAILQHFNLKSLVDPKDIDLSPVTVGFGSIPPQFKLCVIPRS
The target in series [5] is T4, Cytochrome P450 2B6 (Homo sapiens, UniProt P20813).
T4 sequence (P20813 whole entry): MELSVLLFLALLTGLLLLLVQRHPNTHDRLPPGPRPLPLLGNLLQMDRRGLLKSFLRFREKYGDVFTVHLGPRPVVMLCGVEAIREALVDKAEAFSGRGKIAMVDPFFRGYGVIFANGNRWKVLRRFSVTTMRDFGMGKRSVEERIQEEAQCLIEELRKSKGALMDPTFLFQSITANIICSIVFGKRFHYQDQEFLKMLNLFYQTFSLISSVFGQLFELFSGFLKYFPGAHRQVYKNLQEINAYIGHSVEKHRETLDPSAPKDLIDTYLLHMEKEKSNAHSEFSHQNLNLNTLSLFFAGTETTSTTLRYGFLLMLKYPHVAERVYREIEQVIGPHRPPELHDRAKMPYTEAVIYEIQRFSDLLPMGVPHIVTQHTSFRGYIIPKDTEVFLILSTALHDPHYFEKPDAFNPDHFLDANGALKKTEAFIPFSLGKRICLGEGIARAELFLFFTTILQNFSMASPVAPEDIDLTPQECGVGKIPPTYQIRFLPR
Nature of the series: (§1) Mechanism based inhibition of human cytochrome P450 2B6. In kind it is ADME.

In series [6] the target is T5, CYP2B6 (Homo sapiens, UniProt P20813).
T5 sequence (P20813 whole entry): T4 sequence (P20813 whole entry)
The description is as §1. Format: ADME. The following applies: human.

The target of series [7] is T6, Cytochrome P450 2B1 (Rattus norvegicus, UniProt P00176).
T6 sequence (P00176 whole entry): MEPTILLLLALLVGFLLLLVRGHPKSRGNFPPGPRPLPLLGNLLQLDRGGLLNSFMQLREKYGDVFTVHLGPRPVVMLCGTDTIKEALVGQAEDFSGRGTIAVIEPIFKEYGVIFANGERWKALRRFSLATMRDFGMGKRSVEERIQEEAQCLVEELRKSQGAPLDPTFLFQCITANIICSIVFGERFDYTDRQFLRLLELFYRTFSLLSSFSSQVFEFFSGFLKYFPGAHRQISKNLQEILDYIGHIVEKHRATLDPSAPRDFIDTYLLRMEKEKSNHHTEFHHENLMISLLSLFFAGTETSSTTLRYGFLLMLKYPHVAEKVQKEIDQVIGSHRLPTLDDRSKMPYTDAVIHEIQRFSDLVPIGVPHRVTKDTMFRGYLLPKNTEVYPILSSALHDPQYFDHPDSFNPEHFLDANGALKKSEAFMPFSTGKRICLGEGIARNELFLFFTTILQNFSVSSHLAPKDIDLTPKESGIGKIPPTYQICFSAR
Nature of the series: Mechanism based inhibition of rat cytochrome P450 CYP2B1 measured by 7-EFC O-deethylation activity. In kind it is ADME. To be noted: rat.

Series [8] addresses T7, CYP1A2 (Rattus norvegicus, UniProt P04799).
T7 sequence (P04799 whole entry): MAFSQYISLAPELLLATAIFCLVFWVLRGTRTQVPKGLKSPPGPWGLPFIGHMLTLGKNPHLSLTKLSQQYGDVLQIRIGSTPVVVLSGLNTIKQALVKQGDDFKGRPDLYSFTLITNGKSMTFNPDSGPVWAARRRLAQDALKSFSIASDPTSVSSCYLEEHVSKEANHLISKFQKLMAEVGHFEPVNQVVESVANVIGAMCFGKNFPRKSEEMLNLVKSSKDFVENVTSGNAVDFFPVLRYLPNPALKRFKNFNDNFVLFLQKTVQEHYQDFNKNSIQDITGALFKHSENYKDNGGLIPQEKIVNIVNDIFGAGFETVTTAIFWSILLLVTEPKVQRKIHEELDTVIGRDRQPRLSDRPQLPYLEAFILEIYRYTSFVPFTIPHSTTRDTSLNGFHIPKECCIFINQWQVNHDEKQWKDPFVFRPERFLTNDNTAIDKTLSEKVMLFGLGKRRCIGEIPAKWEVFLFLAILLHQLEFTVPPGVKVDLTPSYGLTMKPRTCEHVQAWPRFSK
Nature of the series: (§2) Mechanism based inhibition of rat cytochrome P450 CYP1A2 measured by 7-methoxyresorufin O-demethylation (MROD). In kind it is ADME. The following applies: rat, probe 7-methoxyresorufin (O-demethylation, MROD).

The target of series [9] is T8, Cytochrome P450 1A2 (Rattus norvegicus, UniProt P04799).
T8 sequence (P04799 whole entry): T7 sequence (P04799 whole entry)
The description is as §2. In kind it is ADME.

Series [10] addresses T9, Cytochrome P450 1A1 (Rattus norvegicus, UniProt P00185).
T9 sequence (P00185 whole entry): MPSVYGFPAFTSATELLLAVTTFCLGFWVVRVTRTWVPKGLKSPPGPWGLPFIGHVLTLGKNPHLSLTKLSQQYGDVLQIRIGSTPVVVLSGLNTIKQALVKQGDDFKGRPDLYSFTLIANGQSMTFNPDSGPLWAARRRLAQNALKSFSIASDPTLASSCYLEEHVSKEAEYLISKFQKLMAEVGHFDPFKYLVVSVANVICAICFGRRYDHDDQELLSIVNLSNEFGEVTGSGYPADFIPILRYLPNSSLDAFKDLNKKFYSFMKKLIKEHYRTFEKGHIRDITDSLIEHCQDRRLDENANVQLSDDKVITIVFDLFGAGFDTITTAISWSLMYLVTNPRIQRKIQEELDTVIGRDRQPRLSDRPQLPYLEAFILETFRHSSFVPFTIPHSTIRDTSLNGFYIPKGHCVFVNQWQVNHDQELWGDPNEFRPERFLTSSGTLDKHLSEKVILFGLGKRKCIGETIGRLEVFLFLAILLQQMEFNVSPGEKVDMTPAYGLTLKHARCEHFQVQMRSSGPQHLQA
The experiment in a line: (§3) Mechanism based inhibition of rat cytochrome P450 CYP1A1 measured by 7-ethoxyresorufin O-deethylation (EROD). In kind it is ADME.

In series [11] the target is T10, CYP1A1 (Rattus norvegicus, UniProt P00185).
T10 sequence (P00185 whole entry): T9 sequence (P00185 whole entry)
The series is described as §3. In kind it is ADME. To be noted: rat, probe 7-ethoxyresorufin (O-deethylation, EROD).

“Also recorded” adds a separate entry of the source.

Usually kinact stands for the rate constant of inactivation at saturating inhibitor.

With `CNCCC=C1c2ccccc2CCc2ccccc21` [NORTRIPTYLINE], in [1], the Ki came out at 49.9 µM. Moreover, in series [2], the kinact was 0.0006 s⁻¹. Further, the mechanism based inhibition result in series [3] is recorded as “Cytochrome P450 mechanistic inhibitor: PMID 1435757; also recorded: Cytochrome P450 mechanistic inhibitor: PMID 14555335”.

On to `ClC=C(Cl)Cl` [TRICHLOROETHYLENE], for which the mechanism based inhibition result in series [4] was “Cytochrome P450 mechanistic inhibitor: PMID 9851676”.

As to `CNCCCN1c2ccccc2CCc2ccccc21` [DESIPRAMINE], the mechanism based inhibition result in series [3] is on record as “Cytochrome P450 mechanistic inhibitor: PMID 14555335”.

`C/C=C\Cl.Cl/C=C\Cl`: the mechanism based inhibition result in [4] was “Cytochrome P450 mechanistic inhibitor: PMID 9851676”.

Compound `c1ccc(C2(N3CCCCC3)CCCCC2)cc1` [PHENCYCLIDINE] returned a Ki in series [5] of 10 µM. The kinact in series [6] was 0.000167 s⁻¹. The mechanism based inhibition entry in series [7] was “Cytochrome P450 mechanistic inhibitor: PMID 9029055”.

Consider `CC#Cc1ccc2ccc3cccc4ccc1c2c34`, for which the kinact was 0.001 s⁻¹ in series [8] and 0.000333 s⁻¹ in series [11]. Moreover, the Ki turned out to be 0.004 µM in series [9] and 0.3 µM in series [10].

(Values after ChEMBL document CHEMBL1743341, “Cytochrome p450 enzymes mechanism based inhibitors: common sub-structures and reactivity” (Curr Drug Metab, 2005).)
